# Columns and labels:
# [1] = test system: ISG54 promoter activity in HEK293T cells; test: ISG54 promoter luciferase reporter in HEK293T cells; assay type: cell-based, human
# Method: FIG. 5. BRD4 is required for ISG transcription. (A) HeLa cells were either left untreated or treated with IFN-α for 1 h in presence or absence of JQ-1 or HMBA. Using primers spanning intron-exon junctions, nuclear pre-mRNA for ISG54 and γ-actin were quantified by real-time RT-PCR and normalized to GAPDH mRNA. (B) Control and BRD4 KD cells were either left untreated or treated with IFN-α. ISG56 and BRD4 mRNA were quantified using real-time RT-PCR and normalized to GAPDH mRNA abundance. (C) HEK293T cells were transfected with pcDNA3 (Ctl) or Brd4 expression constructs along with a luciferase reporter driven by the ISG54 promoter. […] Nuclear proteins were extracted as a soluble fraction and a chromatin bound fraction and analyzed by western blotting using anti-BRD4, H4-AcK5 and actin antibodies. […] (F) ChIP assays were performed with antibodies against BRD4 and recovered ISG56, Mx1 and IRF9 TSS spanning sequences were quantified by real-time PCR, normalized to input, and represented as fold enrichment over the untreated sample.
# It has been shown that BRD4 coordinates the recruitment of P-TEFb to regulate transcription of target genes, including ISGs. […] In order to focus on transcriptional events, we again monitored induction of ISG unspliced pre-mRNA. […]
# Nuclear extracts were prepared and analyzed by immunoblotting as follows. […]
# [2] = test system: ISG transcription in HeLa cell nuclei; test: Run-on nuclear transcription in HeLa nuclei; assay type: cell-based, human
# Excerpt: FIG. 2. […] (A) Nuclear extracts from HEK293T cells expressing activated recombinant ISGF3 (STAT1, STAT2, IRF9 and JAK1) or transfected with vector (Ctl) were programmed with G6TI-CAT (G6TI) or p107 (ISG54) templates. Radiolabeled RNA transcripts were resolved by polyacrylamide-urea gel electrophoresis. Arrow and arrowhead indicate position of the transcripts from G6TI-CAT and p107, respectively. (B) HeLa cells were either left untreated or treated with IFN-α in the absence or presence of TSA (TSA in vivo) before nuclei were isolated for run-on transcription. Where indicated, TSA was added to the elongation reaction in vitro (TSA in vitro). Specific signals from γ-actin, ISG15, ISG56, 6-16, 9-27, IRF9 and GBP transcription were quantified following filter hybridization and normalized to the signal for GAPDH, arbitrarily set to 100. […] Mononucleosomal DNA fraction was purified from MNase-digested nuclei and analyzed for nucleosome positions by PCR quantitation of protected fragments. All samples were quantified by real-time PCR, except the—53—+1 ISG54 fragment, which was quantified by gel electrophoresis (C). […]
# Run-off transcription is largely a measure of transcriptional […]. […] Nuclei were isolated from cells untreated or treated with IFNα, pulse-labeled in vitro with radioactive nucleotides, and specific transcriptional elongation was quantified by filter hybridization (FIG. 2B). […]
structure (smiles),measurement,setting,value
"CC(/C=C/C(=O)NO)=C\[C@@H](C)C(=O)c1ccc(N(C)C)cc1 [TSA, Trichostatin A]",IFN-driven ISG54 promoter activity (luciferase),[1]; HEK293T cells,completely suppressed
same,Brd4-driven ISG54 promoter expression (luciferase),"[1]; HEK293T cells overexpressing Brd4, with or without TSA and IFN",No significant differences
same,housekeeping and ISG transcription in nuclear run-on,[2]; TSA added to the in vitro run-on reaction,failed to affect
same,ISG transcription in isolated nuclei,[2]; cells stimulated with IFN in the presence of TSA (TSA in vivo),impaired

# — patent US20190351012A1, “TARGETING OF INTERFERON-STIMULATED GENE EXPRESSION TO TREAT INTERFERONOPATHIES” (New York University, priority 2018, published 2019)
